# Test results published in US6486196B2, “Anticancer compounds: process for their preparation and pharmaceutical compositions containing them” (Dr. Reddy's Research Foundation, priority 2000, dated 2002).
# Where two headings read alike, the source gives them in different places.
# Columns and labels:
# H522 = assay: Sulforhodamine B growth inhibition, lung H522; assay type: cell-based, human; conditions: SRB, read-out: GROWTH INHIBITION (GI 50)
# Procedure: (§1) Each test compound was screened against a battery of cell lines representing eight different types of cancers. In a typical procedure, 1×10^4 cells were seeded into each well of 96 well plate in 100 μL volume of RPMI 1640 medium containing antibiotics and 10% FCS.
# (§2) The plates were incubated at 37° C. in presence of CO2. After 24 h, test compounds were evaluated at five 10 fold dilutions ranging from 100 to 0.01 μM. To each test well 100 μL of test compound solution was added and medium with vehicle was added to control wells and the plates were further incubated. After 48 h of incubation, plates were terminated by Sulforhodamine B method.
# (§3) The optical density which is proportional to protein mass, is then read by automated spectrophotometric plate reader at a wavelength of 515 nm.
# UACC62 = assay: Sulforhodamine B growth inhibition, melanoma UACC62; assay type: cell-based, human; conditions: Homo sapiens, UACC-62, 48 h, SRB, read-out: GROWTH INHIBITION (GI 50)
# Procedure: as §1, §2, §3
# MCF-7/ADR = assay: Sulforhodamine B growth inhibition, breast MCF-7/ADR; assay type: cell-based, human; conditions: 48 h, SRB, read-out: GROWTH INHIBITION (GI 50)
# Procedure: as §1, §2, §3
# SW-620 = assay: Sulforhodamine B growth inhibition, colon SW-620; assay type: cell-based, human; conditions: 48 h, SRB, read-out: GROWTH INHIBITION (GI 50)
# Procedure: as §1, §2, §3
# PC-3 = assay: Sulforhodamine B growth inhibition, prostate PC-3; assay type: cell-based, human; conditions: Homo sapiens, 48 h, SRB, read-out: GROWTH INHIBITION (GI 50)
# Procedure: as §1, §2, §3
# ACHN = assay: Sulforhodamine B growth inhibition, renal ACHN; assay type: cell-based; conditions: Homo sapiens, 48 h, SRB, read-out: GROWTH INHIBITION (GI 50)
# Procedure: as §1, §2, §3
# SKOV-3 = assay: Sulforhodamine B growth inhibition, ovarian SKOV-3; assay type: cell-based, human; conditions: SRB, read-out: GROWTH INHIBITION (GI 50)
# Procedure: as §1, §2, §3
# DU145 = assay: Sulforhodamine B growth inhibition, prostate DU145; assay type: cell-based, human; conditions: SRB, read-out: GROWTH INHIBITION (GI 50)
# Procedure: as §1, §2, §3
# MCF7 = assay: Sulforhodamine B growth inhibition, breast MCF7; assay type: cell-based, human; conditions: Homo sapiens, 48 h, SRB, read-out: GROWTH INHIBITION (GI 50)
# Procedure: as §1, §2, §3
# U251 = assay: Sulforhodamine B growth inhibition, CNS U251; assay type: cell-based, human; conditions: SRB, read-out: GROWTH INHIBITION (GI 50)
# Procedure: as §1, §2, §3
# HT29 = assay: Sulforhodamine B growth inhibition, colon HT29; assay type: cell-based, human; conditions: Homo sapiens, HT-29, 48 h, SRB, read-out: GROWTH INHIBITION (GI 50)
# Procedure: as §1, §2, §3
# PA1 = assay: Sulforhodamine B growth inhibition, ovarian PA1; assay type: cell-based, human; conditions: Homo sapiens, PA-1, 48 h, SRB, read-out: GROWTH INHIBITION (GI 50)
# Procedure: as §1, §2, §3
# A498 = assay: Sulforhodamine B growth inhibition, renal A498; assay type: cell-based, human; conditions: 48 h, SRB, read-out: GROWTH INHIBITION (GI 50)
# Procedure: as §1, §2, §3
# HIV-1/MN = assay: Anti HIV activity in PM-1 cells (P24 ELISA, MTT corrected); assay type: cell-based; conditions: 1 μM; PM-1 cells infected with HIV-1/MN, 96 h, P24 antigen corrected by MTT
# Procedure: Human CD^4+ T cell line PM-1 used in the assay was cultured in RPMI-1640 medium containing 10% Fetal bovine serum, 2 g/L sodium bicarbonate, 100,000 units/L Pencillin-G and 100 mg/L streptomycin. Healthy PM-1 cells were plated on the first day in a 96 well plate at 2×10^6 cells per well. After 24 h HIV-1/MN was added to the culture and incubated for 2 h for infection. Cells were washed twice with PBS to remove the virus in the culture. Different concentrations of DRF compounds ranging from 10−^4 to 10^−8 M were added to the culture and incubated for 96 h. The viability of cells was then assessed by standard MTT assay and the viral antigen P24 levels were estimated by ELISA method. Based on the MTT assay values the P 24 antigen values were corrected.
# All the samples were tested in triplicates and the average was used for calculations. AZT was used as standard compound for comparision.
# KB = KB cells; cited from earlier work
# [1] = tested on: P388 lymphocytic leukemia; conditions: P388 cells; cited from earlier work
# HIV-1 (EIB) = conditions: cited from earlier work
# M14 = assay: Sulforhodamine B growth inhibition, melanoma M14; assay type: cell-based, human; conditions: 48 h, SRB, read-out: GROWTH INHIBITION (GI 50)
# Procedure: as §1, §2, §3
compound,measurement,setting,value
"C=C1CCC2[C@](C)(CO)[C@H](O)CC[C@]2(C)[C@H]1C/C=C1/C(=O)OC[C@H]1OC(=O)Nc1ccccc1 (stereo partly drawn) [Example 9, 14-phenylcarbamoyl andrographolide]",melting point,,120 °C
same,GI50,"H522; Homo sapiens, NCI-H522, 48 h",12 µM
same,GI50,UACC62,3 µM
same,GI50,"MCF-7/ADR; Homo sapiens, NCI/ADR-RES",0.4 µM
same,GI50,SW-620; Homo sapiens,2.5 µM
same,GI50,PC-3,3 µM
same,GI50,ACHN,5 µM
same,GI50,"SKOV-3; Homo sapiens, SK-OV-3, 48 h",3 µM
same,GI50,"DU145; Homo sapiens, DU-145, 48 h",6 µM
same,GI50,MCF7,2.5 µM
same,GI50,"U251; Homo sapiens, U-251, 48 h",6.5 µM
same,GI50,HT29,4 µM
"C=C1CCC2[C@](C)(CO)[C@H](O)CC[C@]2(C)[C@H]1C/C=C1/C(=O)OC[C@H]1OC(=O)NC(C)C (stereo partly drawn) [Example 10, 14-(N-isopropyl)carbamoyl andrographolide]",melting point,,122 °C
"C=C1CCC2[C@](C)(CO)[C@H](O)CC[C@]2(C)[C@H]1C/C=C1/C(=O)OC[C@H]1OC(=O)/C=C/c1ccccc1 (stereo partly drawn) [Example 11, 14-Cinnamoyl andrographolide]",melting point,,77 °C
"C=C1CCC2[C@]3(C)COC(C)(c4ccccc4)O[C@@H]3CC[C@]2(C)[C@H]1C/C=C1/C(=O)OC[C@H]1O (stereo partly drawn) [Example 3, 3,19-(1-Phenylethylidene)andrographolide]",melting point,,201 to 203 °C
same,GI50,"H522; Homo sapiens, NCI-H522, 48 h",12 µM
same,GI50,PA1,19 µM
same,GI50,UACC62,3 µM
same,GI50,"MCF-7/ADR; Homo sapiens, NCI/ADR-RES",2 µM
same,GI50,A498; Homo sapiens,3 µM
same,GI50,SW-620; Homo sapiens,5 µM
same,GI50,"SKOV-3; Homo sapiens, SK-OV-3, 48 h",5 µM
same,GI50,MCF7,12 µM
same,GI50,"U251; Homo sapiens, U-251, 48 h",2 µM
same,GI50,HT29,2 µM
"C=C1CCC2[C@](C)(CO)[C@H](O)CC[C@]2(C)[C@H]1C/C=C1/C(=O)OC[C@H]1OC(=O)C(C)(C)C (stereo partly drawn) [Example 13, 14-Pivaloyl andrographolide]",melting point,,172.7 °C
"C=C1CCC2[C@](C)(CO)[C@H](O)CC[C@]2(C)[C@H]1C/C=C1/C(=O)OC[C@H]1OCc1ccccc1 (stereo partly drawn) [Example 15, 14-Benzyl andrographolide]",melting point,,141 °C
same,GI50,"H522; Homo sapiens, NCI-H522, 48 h",12 µM
same,GI50,UACC62,3.5 µM
same,GI50,"MCF-7/ADR; Homo sapiens, NCI/ADR-RES",20 µM
same,GI50,SW-620; Homo sapiens,3.5 µM
same,GI50,PC-3,2 µM
same,GI50,ACHN,4 µM
same,GI50,"SKOV-3; Homo sapiens, SK-OV-3, 48 h",3 µM
same,GI50,"DU145; Homo sapiens, DU-145, 48 h",4 µM
same,GI50,MCF7,6 µM
same,GI50,"U251; Homo sapiens, U-251, 48 h",40 µM
same,GI50,HT29,3.5 µM
"C=C1CCC2[C@]3(C)COC(C)(C)O[C@@H]3CC[C@]2(C)[C@H]1C/C=C1/C(=O)OC[C@H]1OC(=O)[C@H](CCSC)NC(=O)OC(C)(C)C (stereo partly drawn) [Example 4, 3,19-isopropylidene-14-(N-Boc-methionyl)andrographolide]",melting point,,70 °C
"C=C1CC[C@@H]2[C@]3(C)COC(C)(C)O[C@@H]3CC[C@@]2(C)[C@@H]1C/C=C1/C(=O)OC[C@H]1O [Example 1, 3,19-isopropylidene andrographolide]",melting point,,194.5 °C
same,GI50,"H522; Homo sapiens, NCI-H522, 48 h",14 µM
same,GI50,PA1,2 µM
same,GI50,UACC62,4 µM
same,GI50,"MCF-7/ADR; Homo sapiens, NCI/ADR-RES",2 µM
same,GI50,A498; Homo sapiens,13 µM
same,GI50,SW-620; Homo sapiens,5 µM
same,GI50,"SKOV-3; Homo sapiens, SK-OV-3, 48 h",8 µM
same,GI50,MCF7,13 µM
same,GI50,"U251; Homo sapiens, U-251, 48 h",4 µM
same,GI50,HT29,2 µM
"C=C1CCC2[C@]3(C)COC(c4ccccc4)O[C@@H]3CC[C@]2(C)[C@H]1C/C=C1/C(=O)OC[C@H]1O (stereo partly drawn) [Example 2, 3,19-Benzylidene andrographolide]",melting point,,142 to 143 °C
"C=C1CCC2[C@](C)(CO)[C@H](O)CC[C@]2(C)[C@H]1C/C=C1/C(=O)OC[C@H]1OC(=O)c1ccccc1 (stereo partly drawn) [Example 14, 14-Benzoyl andrographolide]",melting point,,85.5 to 87 °C
same,GI50,"H522; Homo sapiens, NCI-H522, 48 h",7.5 µM
same,GI50,UACC62,3 µM
same,GI50,"MCF-7/ADR; Homo sapiens, NCI/ADR-RES",3.5 µM
same,GI50,SW-620; Homo sapiens,3 µM
same,GI50,PC-3,2 µM
same,GI50,ACHN,5 µM
same,GI50,"SKOV-3; Homo sapiens, SK-OV-3, 48 h",3.5 µM
same,GI50,"DU145; Homo sapiens, DU-145, 48 h",6 µM
same,GI50,MCF7,10 µM
same,GI50,"U251; Homo sapiens, U-251, 48 h",1.5 µM
same,GI50,HT29,4 µM
"C=C1CCC2[C@](C)(CO)[C@H](O)CC[C@]2(C)[C@H]1C/C=C1/C(=O)OC[C@H]1OC(C)=O (stereo partly drawn) [Example 7, 14-acetyl andrographolide]",melting point,,169 °C
"C=C1CCC2[C@](C)(COC(=O)CC)[C@H](OC(=O)CC)CC[C@]2(C)[C@H]1C/C=C1/C(=O)OC[C@H]1OC(=O)CNC(=O)OC(C)(C)C (stereo partly drawn) [Example 20, 14-(N-Boc-glycinyl)-3,19-dipropionyl andrographolide]",melting point,,65 °C
"C=C1CCC2[C@](C)(CO)[C@H](O)CC[C@]2(C)[C@H]1C/C=C1/C(=O)OC[C@H]1OC(=O)C(C)C (stereo partly drawn) [Example 12, 14-Isopropanoyl andrographolide]",melting point,,122.6 °C
"Cc1cn([C@H]2C[C@H](N=[N+]=[N-])[C@@H](CO)O2)c(=O)[nH]c1=O [AZT, reference compound]",Percentage Inhibition,HIV-1/MN,72.47%
C=C1CC[C@@H]2[C@](C)(CO)[C@H](O)CC[C@@]2(C)[C@@H]1C/C=C1/C(=O)OC[C@H]1O [Andrographolide],cytotoxic activity,KB,potent cytotoxic activity
same,cytotoxic activity,[1],potent cytotoxic activity
"C=C1CCC2[C@](C)(COC(=O)CC)C(OC(=O)CC)CC[C@]2(C)[C@H]1C/C=C1/C(=O)OCC1OC(=O)/C=C/c1ccc(OC)c(OC)c1 (stereo partly drawn) [Example 27, 14-(3,4-dimethoxy)cinnamoyl-3,19-dipropionyl andrographolide]",melting point,,85.4 °C
dehydroandrographolide succinic acid monoester [DASM],minimal concentration inhibitory to HIV-1 (EIB),HIV-1 (EIB),1.6 to 3.1 µg/mL
"C=C1CC[C@@H]2[C@](C)(COC(C)=O)[C@H](OC(C)=O)CC[C@@]2(C)[C@@H]1C/C=C1/C(=O)OC[C@H]1OC(=O)C(O)C(NC(=O)c1ccccc1)c1ccccc1 (stereo partly drawn) [Example 18, 3,19-Diacetyl-14-(2′hydroxy-3′-benzoylamino 3′-phenyl)propionyl andrographolide]",GI50,H522; 48 h,20 µM
same,GI50,MCF-7/ADR,8 µM
same,GI50,A498,10 µM
same,GI50,SW-620,5 µM
same,GI50,M14,3 µM
same,GI50,SKOV-3; 48 h,4 µM
same,GI50,DU145; 48 h,3 µM
same,GI50,U251; 48 h,8 µM
"C=C1CC[C@@H]2[C@](C)(COC(C)=O)[C@H](OC(C)=O)CC[C@@]2(C)[C@@H]1C/C=C1/C(=O)OC[C@H]1OC(=O)CNC(C)=O [Example 22, 14-(N-acetyl-glycinyl)-3,19-diacetyl andrographolide]",GI50,H522; 48 h,20 µM
same,GI50,MCF-7/ADR,8 µM
same,GI50,A498,25 µM
same,GI50,SW-620,5 µM
same,GI50,M14,9.5 µM
same,GI50,SKOV-3; 48 h,30 µM
same,GI50,DU145; 48 h,8 µM
same,GI50,U251; 48 h,1.5 µM
